The values below come from patent US4455312A.

Counter-ions that a name gives are not always drawn. Like-named read-outs stand apart in the source and are kept apart here.

A short description of data set [1]: Acute toxicity in rabbits (LD50). To be noted: rabbit, in vivo, ip, rabbits, intra-abdominal, Van der Waerden. The protocol: (§1) 2-(o-carboxyphenylamino)-6-H-pyrimido(2,1-b)-quinazolone-6 and its derivatives were tested for acute toxicity.
(§2) Acute toxicity of 2-(o-carboxyphenylamino)-6H-pyrimido(2,1-b)-quinazolone-6and its derivatives was determined in intra-abdominal and peroral administration; for cats in peroral administration. […] The statistical analysis of obtained data was carried out in accordance with the method of Litchfield, Wilcockson and Van der Waerden.

Data set [2] can be described thus: Acute toxicity in cats (LD50). To be noted: cat, in vivo, po. The protocol:
as §1, §2

The next data set can be described thus: in vivo. Here is the method:
as §1, §2

The test system of a further data set is cotton granuloma. Briefly: whole plant or invertebrate. From the text: The term "cotton granuloma" means hereinafter the formation of a granular-fibrous tissue around cotton balls implanted into experimental animals.
Data set [3] concerns threshold of pain sensitivity in contact-heat stimulation.
The next data set relates to pyrogenal fever. Briefly: Antipyretic effect in pyrogenal fever. To be noted: rats.
The next data set deals with carrageenin edema. The protocol:
(§3) The growth of foot endema in the rat was registered in dynamics after each hour from the moment of subplantar administration of a stimulus during 5 hours. Percentage of inhibition of the foor emeda in the rat was calculated from the following formula: [formula] where
(§4) Vk is the volume of a control edematic foot minus the initial volume of the same foot prior to edema;
(§5) Vo is the volume of the tested edematic foot minus the initial volume of the same foot prior to edema.
A carrageenin edema was induced by subplantar administration in rats of 0.1 ml 1% solution of carrageenin (polysaccharide prepared from Iceland or pearl moss).

In data set [4] the test system is formalin edema of a foot in the rat. To be noted: for other symptoms of inflammation (hyperemia, painfulness) and formation of necrotic foci: formalin inflammation. Here is the method: as §3, §4, §5
The test system of another data set is rabbits. The data set is described as follows: Acute toxicity in rabbits (LD50). To be noted: rabbit, in vivo, 10080 min. Here is the method:
as §1, §2

The next data set deals with white mice. The data set is described as follows: in vivo. To be noted: mouse, 168 h. Here is the method:
as §1, §2

The subject of a further data set is rats. Briefly: in vivo. To be noted: rat, 168 h. The protocol:
as §1, §2

The next data set relates to ovalbumin edema. The data set is described as follows: Ovalbumin edema of rat foot. To be noted: 1/10 LD50 intra-abdominal. The data set is classed as in vivo, rats. Here is the method:
An ovalbumin edema was induced by subplantar administration in rats of egg albumin (0.1 ml per foot). The edema developed very intensely, i.e. reached the maximum magnitude (191%) as soon as 1 hour following the injection of ovalbumin, and completely disappeared by the end of the day.
The preparations under studies were administered in the given investigations in a dose corresponding to 1/10LD50 for the rats in the intra-abdominal administration.

The next data set can be described thus: Solubility. The format is physicochemical.
Setting [5] is: rat, in vivo, ip, hydrochloride.
Where [6] appears, read: read-out: Percentage of inhibition (cotton granuloma).

Procedure for pyrogenal fever: Antipyretic effect of 2-(o-carboxyphenylamino)-6H-pyrimido(2,1-b)-quinazolone-6 and its derivatives were investigated in rats suffering from pyrogenal fever. Maximum decrease in the temperature (degrees) was determined.

Consider `O=C(O)c1ccccc1Nc1ccn2c(=O)c3ccccc3nc2n1`, for which the LD50 (in general, the dose at which mortality reaches 50%) at 168 h amounted to 1750 mg/kg in data set [1]; 5000 mg/kg in data set [2]; 1050 mg/kg in the data set “in vivo” (mouse, ip); 3400 mg/kg in the data set “in vivo” (mouse, po); 980 mg/kg in “in vivo” (rat, ip); 3800 mg/kg in “in vivo” (rat, po).
In the case of `COC(=O)c1ccccc1Nc1ccn2c(=O)c3ccccc3nc2n1`, the 50% lethal dose (LD50) at 168 h in the data set “in vivo” (mouse, ip) came out at 1160 mg/kg.
In the case of `O=C(O)c1ccccc1Nc1ccn2c(=O)c3ccccc3nc2n1` [2-(o-carboxyphenylamino)6H-pyrimido(2,1-b)-quinazolone-6 hydrochloride], the “Percentage of inhibition (cotton granuloma)” value is given as 18% with cotton granuloma (48 mg/kg), 24% with cotton granuloma (95 mg/kg) and 52% in the data set with cotton granuloma (190 mg/kg). For the same compound, in the data set with cotton granuloma (cotton granuloma), the “antiproliferative effect (in words)” value is “the most effective among the given preparations”. Further, the “pharmacotherapeutic width of effect relative to mephenamine acid, sodium salicylate, and phenylbutazone” value in the data set on cotton granuloma (cotton granuloma) is reported as “three times”. Also, in the data set on cotton granuloma (in vivo, hydrochloride), the “Therapeutic index (cotton granuloma)” value worked out at 22.3. For the same compound, the “Increase in latent period of pain reaction in mice” value (from here on “Increase in latent period”) worked out at 31% in data set [3] (52 mg/kg, hydrochloride); 52% in data set [3] (105 mg/kg, hydrochloride); 62% in data set [3] (157 mg/kg, hydrochloride). Besides, in data set [3] (mouse, in vivo, hydrochloride), the “Therapeutic index (analgetic activity)” value came to 11.0. In addition, the “Antipyretic effect (maximum decrease in temperature)” value in the data set on pyrogenal fever (5% of LD50 (hydrochloride's dose not printed separately)) stood at 1.4 °C. The entries for the “Percentage of inhibition (carrageenin edema)” value in the data set with carrageenin edema (25 mg/kg intra-abdominal), in the data set with carrageenin edema (49 mg/kg intra-abdominal) and in the data set on carrageenin edema (98 mg/kg intra-abdominal) were 12%, 26% and 55%, respectively. Also, in the data set with carrageenin edema (setting [5]), the “Therapeutic index (carrageenin edema)” value is on record as 10.9. Also, the “Percentage of inhibition (formalin edema)” value in data set [4] (5 mg/kg intra-abdominal) is listed as 31%; in data set [4] (10 mg/kg intra-abdominal), 50%; in data set [4] (49 mg/kg intra-abdominal), 57%; in [4] (98 mg/kg intra-abdominal) it was 71%. Further, the “depression of formalin edema of a foot in the rat (in words)” value in [4] (comparison of preparations) was “the most actively depressed”. The “Therapeutic index (formalin edema)” value in data set [4] (setting [5]) was found to be 61.2. For the same compound, the LD50 was 1750 mg/kg with rabbits (ip); 500 mg/kg with rabbits (po, hydrochloride); 1050 mg/kg with white mice (ip); 3400 mg/kg in the data set with white mice (po); 980 mg/kg in the data set with rats (ip); 3800 mg/kg with rats (po).
As for `CNC(=O)c1ccccc1Nc1ccn2c(=O)c3ccccc3nc2n1` [2-(o-methylcarbamidephenylamino)-6H-pyrimido(2,1-b)-quinazolone-6], the 50% lethal dose (LD50) at 168 h in the data set “in vivo” (mouse, ip) was found to be 3000 mg/kg.
For `CC(C)Cc1ccc(C(C)C(=O)O)cc1` (centres unmarked) [Bruphen, 2-(para-isobutylphenyl)-propionic acid], the “Antipyretic effect (maximum decrease in temperature)” value in the data set with pyrogenal fever (70% of LD50) was 1.3 °C.
For the compound `COc1ccc2c(c1)c(CC(=O)O)c(C)n2C(=O)c1ccc(Cl)cc1` [Indomethacin, 1-(para-chlorobenzoyl)5-methoxy-2-methyl-indole-3-acetic acid], the “Antipyretic effect (maximum decrease in temperature)” value with pyrogenal fever (70% of LD50) is 0.7 °C.
Turning to `Cc1cccc(Nc2ccccc2C(=O)O)c1C` [Mephenamine acid, N--(2,3-dimethylphenyl) anthranilic acid], the “antiproliferative effect (in words)” value in the data set on cotton granuloma (cotton granuloma) was “the most effective among the given preparations”. Moreover, the “Increase in latent period” value in data set [3] (3.5 mg/kg) is reported as 18%; in data set [3] (7.0 mg/kg), 36%; in data set [3] (15 mg/kg), 43%. The “analgetic activity (in words)” value in data set [3] (contact-heat stimulation) was “possessed the most expressed analgetic effect”. Further, the “Antipyretic effect (maximum decrease in temperature)” value with pyrogenal fever (70% of LD50) is 1.2 °C. The “Percentage of inhibition (carrageenin edema)” value with carrageenin edema (25 mg/kg intra-abdominal) was 33%; in the data set with carrageenin edema (50 mg/kg intra-abdominal), 44%; in the data set with carrageenin edema (100 mg/kg intra-abdominal), 50%. For the same compound, the “Percentage of inhibition (formalin edema)” value is 22% in data set [4] (9 mg/kg intra-abdominal), 24% in [4] (18 mg/kg intra-abdominal), 31% in [4] (36 mg/kg intra-abdominal) and 33% in data set [4] (72 mg/kg intra-abdominal). Also, the “other symptoms of inflammation (hyperemia, painfulness) and formation of necrotic foci” value in data set [4] was “almost noncharacteristic”.
Regarding `CCCCC1C(=O)N(c2ccccc2)N(c2ccccc2)C1=O` [Phenylbutazone, 1,2-diphenyl-4-butyl pyrazolidine-dion-3,5], the “antiexudative / antiinflammatory effect in ovalbumin edema (in words)” value in the data set with ovalbumin edema is given as “did not produce antiedematic effect”. Also, the results for the “Increase in latent period” value in data set [3] (25 mg/kg), in [3] (50 mg/kg) and in data set [3] (100 mg/kg) were 8%, 43% and 92%, respectively. The figures for the “Percentage of inhibition (carrageenin edema)” value with carrageenin edema (21 mg/kg intra-abdominal), with carrageenin edema (42 mg/kg intra-abdominal) and with carrageenin edema (84 mg/kg intra-abdominal) were 27%, 44% and 51%, respectively. For the same compound, the “Percentage of inhibition (formalin edema)” value is 17% in data set [4] (21 mg/kg intra-abdominal), 40% in data set [4] (42 mg/kg intra-abdominal) and 51% in data set [4] (82 mg/kg intra-abdominal).
On to `O=C(O)c1ccccc1O` [Sodium salicylate, 6-oxybenzoic acid, sodium salt], for which the “Therapeutic index (cotton granuloma)” value with cotton granuloma (LD50/ED50) stood at 7.27. In addition, in the data set on cotton granuloma (setting [6]), the inhibition – broadly, the change of the read-out against control, counted positive when it falls – at 60 mg/kg was found to be 8%. In the data set on cotton granuloma (setting [6]), the inhibition at 80 mg/kg was 20%. Further, the inhibition at 160 mg/kg in the data set with cotton granuloma (setting [6]) was 36%. For the same compound, in the data set on cotton granuloma (setting [6]), the inhibition at 240 mg/kg turned out to be 52%. The figures for the “Increase in latent period” value in data set [3] (32 mg/kg), in data set [3] (65 mg/kg) and in data set [3] (130 mg/kg) were 28%, 38% and 59%, respectively. Also, the “Therapeutic index (analgetic activity)” value in data set [3] (LD50/ED50, contact-heat stimulation) is 5.9. Also, the “Percentage of inhibition (carrageenin edema)” value is reported as 14% in the data set on carrageenin edema (65 mg/kg intra-abdominal), 32% in the data set with carrageenin edema (90 mg/kg intra-abdominal) and 56% in the data set on carrageenin edema (130 mg/kg intra-abdominal). Moreover, in the data set on carrageenin edema (LD50/ED50, intra-abdominal), the “Therapeutic index (carrageenin edema)” value amounted to 5.6. Further, the figures for the “Percentage of inhibition (formalin edema)” value in data set [4] (65 mg/kg intra-abdominal), in data set [4] (130 mg/kg intra-abdominal) and in data set [4] (260 mg/kg intra-abdominal) were 14%, 24% and 41%, respectively. In data set [4] (LD50/ED50, intra-abdominal), the “Therapeutic index (formalin edema)” value is recorded as 1.8. In addition, the “other symptoms of inflammation (hyperemia, painfulness) and formation of necrotic foci” value in data set [4] is “almost noncharacteristic”.
For the compound `O=C(O)c1ccccc1Nc1ccn2c(=O)c3ccccc3nc2n1` [ethanol ammonium salt of 2-(o-carboxyphenylamino)-6H-pyrimid], in “Solubility”, the “solubility (in words)” value is “soluble in water”.
